Test results: US6465654B2, “Process for preparing 1-substituted, 2-substituted 1H-imidazo[4, 5-c]quinoline-4-amines” (3M Innovative Properties Company, priority 1991, dated 2002)

Tests used:
interferon-α = assay: Interferon-α induction in human cells, PBM; type: cell-based; conditions: 24 hours
interferon = assay: Interferon induction in mice; type: in vivo; conditions: mouse serum
In short: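 Mouse serum collected at 1, 2 and 4 h (separate groups), pooled, stored at −70° C, then assayed as for human-cell interferon. Values in α/β reference units/mL against a mouse MU-1-IF standard; "<" marks levels below assay sensitivity.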

MC-26 colon tumor cells = assay: Inhibition of MC-26 tumors in mice, 21 day lung colony count; conditions: lung colonies day 21, 1×10^4 MC-26 cells i.v., control 55 ± 11
Procedure: On day 0 female CDF1 mice are inoculated i.v. with 1×10^4 MC-26 colon tumor cells in a volume of 0.2 mL of saline per mouse. The mice are sacrificed 21 days later. The lungs are removed and fixed with WARF then allowed to stand for 30 minutes. The lobes are separated and the colonies are counted. Ten mice are in each treatment group and in the control group.
The mice in the control group were dosed orally with water (10 mL/Kg) on days 0, 1, 2, 3 and 4.

[1] = test system: vesicular stomatitis virus (VSV); assay: microbe, parasite or virus in culture; type: cell-based; conditions: Vesicular stomatitis virus, read-out: VSV Yield Inhibition

## CC(C)Cn1c(C(O)c2ccccc2)nc2c(N)nc3ccccc3c21 (stereo not drawn) [Example 48, 4-Amino-1-(2-methylpropyl)-α-phenyl-1H-imidazo[4,5-c]quinoline-2-methanol]
interferon-α; dose concentration 0.10 μg/mL
  Interferon-α induction: 3100 α Reference Units/mL
interferon-α; dose concentration 0.50 μg/mL
  Interferon-α induction: 840 α Reference Units/mL
interferon-α; dose concentration 1.0 μg/mL
  Interferon-α induction: 330 α Reference Units/mL
interferon-α; dose concentration 5.0 μg/mL
  Interferon-α induction: 1300 α Reference Units/mL
interferon; oral 0.3 mg/kg, 1 hr
  Interferon induction in mice: <260 Reference Units/mL
interferon; oral 0.3 mg/kg, 2 hr
  Interferon induction in mice: <260 Reference Units/mL
interferon; oral 0.3 mg/kg, 4 hr
  Interferon induction in mice: <260 Reference Units/mL
interferon; oral 1 mg/kg, 1 hr
  Interferon induction in mice: 790 Reference Units/mL
interferon; oral 1 mg/kg, 2 hr
  Interferon induction in mice: 940 Reference Units/mL
interferon; oral 1 mg/kg, 4 hr
  Interferon induction in mice: <260 Reference Units/mL
interferon; oral 3 mg/kg, 1 hr
  Interferon induction in mice: 1600 Reference Units/mL
interferon; oral 3 mg/kg, 2 hr
  Interferon induction in mice: 1600 Reference Units/mL
interferon; oral 3 mg/kg, 4 hr
  Interferon induction in mice: ˜510 Reference Units/mL
interferon; oral 10 mg/kg, 1 hr
  Interferon induction in mice: 2000 Reference Units/mL
interferon; oral 10 mg/kg, 2 hr
  Interferon induction in mice: 2000 Reference Units/mL
interferon; oral 10 mg/kg, 4 hr
  Interferon induction in mice: ˜540 Reference Units/mL
other
  melting point: 125 to 140 °C

## CCOCc1nc2c(N)nc3ccccc3c2n1CC(C)(C)O [Example 99, 4-Amino-α,α-dimethyl-2-ethoxymethyl-1H-imidazo[4,5-c]quinoline-1-ethanol]
MC-26 colon tumor cells; oral 1 mg/Kg on days 0-4
  Number of Colonies: 29 ± 4
MC-26 colon tumor cells; oral 3 mg/Kg on days 0-4
  Number of Colonies: 17 ± 3
interferon-α; dose concentration 0.01 μg/mL
  Interferon-α induction: 28 α Reference Units/mL
interferon-α; dose concentration 0.05 μg/mL
  Interferon-α induction: 316 α Reference Units/mL
interferon-α; dose concentration 0.10 μg/mL
  Interferon-α induction: 280 α Reference Units/mL
interferon-α; dose concentration 0.50 μg/mL
  Interferon-α induction: 790 α Reference Units/mL
interferon-α; dose concentration 1.0 μg/mL
  Interferon-α induction: 790 α Reference Units/mL
interferon-α; dose concentration 5.0 μg/mL
  Interferon-α induction: 630 α Reference Units/mL
[1]
  log reduction at 0.1 µg/mL: 5
  log reduction at 0.5 µg/mL: 5
  log reduction at 1 µg/mL: 5
interferon; oral 0.3 mg/kg, 1 hr
  Interferon induction in mice: 1600 Reference Units/mL
interferon; oral 0.3 mg/kg, 2 hr
  Interferon induction in mice: 3500 Reference Units/mL
interferon; oral 0.3 mg/kg, 4 hr
  Interferon induction in mice: 390 Reference Units/mL
interferon; oral 1 mg/kg, 1 hr
  Interferon induction in mice: 2200 Reference Units/mL
interferon; oral 1 mg/kg, 2 hr
  Interferon induction in mice: 5100 Reference Units/mL
interferon; oral 1 mg/kg, 4 hr
  Interferon induction in mice: 460 Reference Units/mL
interferon; oral 3 mg/kg, 1 hr
  Interferon induction in mice: 1600 Reference Units/mL
interferon; oral 3 mg/kg, 2 hr
  Interferon induction in mice: 750 Reference Units/mL
interferon; oral 3 mg/kg, 4 hr
  Interferon induction in mice: ˜220 Reference Units/mL
interferon; oral 10 mg/kg, 1 hr
  Interferon induction in mice: 2500 Reference Units/mL
interferon; oral 10 mg/kg, 2 hr
  Interferon induction in mice: 4600 Reference Units/mL
interferon; oral 10 mg/kg, 4 hr
  Interferon induction in mice: ˜220 Reference Units/mL
